Measurements: patent US20230331718A1, “COMPOSITIONS FOR MODULATING SPLICING” (Skyhawk Therapeutics, Inc., priority 2020, published 2023)

Experiments:
SMN2 Protein = assay: SMN Protein Assay (MSD); type: cell-based, human; settings: SMA patient fibroblasts, 48 hours, 0.6 nM to 2.5 µM
Description: Spinal muscular atrophy (SMA) patient fibroblasts were plated in 96-well plates at 7,000 cells/well. Compounds were added in concentrations ranging from 0.6 nM to 2.5 µM, incubated for 48 hours and the cells were lysed with 100 µL of lysis buffer. 20 µL of lysate was used for SMN protein measurement by Mesoscale Discovery (MSD) assay developed by PharmOptima (Michigan). A standard curve prepared with SMN protein ranging from 1 µg/ml to 19.5pg/ml was used in each MSD plate to calculate the absolute SMN protein amount in each sample.

[1] = system: SMN2 Splicing D7 (SMN Δ7 transcript); assay: SMN Quantitative Splicing Assay (qPCR); type: cell-based, human; settings: 24 h, SMA patient fibroblasts (GM03813), 2.5 µM to 0.6 nM
Description: Spinal muscular atrophy (SMA) patient fibroblasts (GM03813, Coriell) were plated in 96-well plates at 50,000 cells/well. […] Treated cells were lysed and cDNA synthesized using the Fast Advanced Cells-to-Ct kit (Thermofisher A35378) according to the manufacturer’s instructions. 2 µL of each cDNA were used in qPCR reactions. […] Reactions were run in a Quant Studio 6 qPCR instrument with default settings.

## Cc1cc2cc(O)c(-c3ncc(N(C)[C@H]4CC5CCC(N5)[C@H]4F)nn3)cc2cn1 (some centres unmarked) [Compound 46]
SMN2 Protein
  EC50: 0.01 to 15 nM
[1]; Homo sapiens, Fibroblast
  IC50: 0.01 to 15 nM

## Cc1cc2cc(-c3ncc(N(C)[C@@H]4CC5CCCC(N5)[C@@H]4F)nn3)c(O)cc2cn1 (some centres unmarked) [Compound 47]
SMN2 Protein
  EC50: 16 to 50 nM
[1]; Homo sapiens, Fibroblast
  IC50: 51 to 100 nM

## Cc1cc2cc(-c3ncc(N(C)[C@H]4CC5CCCC(N5)[C@H]4F)nn3)c(O)cc2cn1 (some centres unmarked) [Compound 48]
SMN2 Protein
  EC50: 0.01 to 15 nM
[1]; Homo sapiens, Fibroblast
  IC50: 0.01 to 15 nM

## Cc1cnc2cc(O)c(-c3ncc(N(C)[C@@H]4CC5CCC(N5)[C@@H]4F)nn3)cc2n1 (some centres unmarked) [Compound 51]
SMN2 Protein
  EC50: 51 to 100 nM
[1]; Homo sapiens, Fibroblast
  IC50: 51 to 100 nM

## Cc1cnc2cc(O)c(-c3ncc(N(C)[C@H]4C[C@@H]5CCC(N5)[C@H]4F)nn3)cc2n1 [Compound 52]
SMN2 Protein
  EC50: 0.01 to 15 nM
[1]; Homo sapiens, Fibroblast
  IC50: 16 to 50 nM

## Cc1cnc2cc(-c3ncc(N(C)[C@@H]4CC5CC[C@H](N5)[C@@H]4F)nn3)c(O)cc2n1 [Compound 53]
SMN2 Protein
  EC50: 101 to 500 nM
[1]; Homo sapiens, Fibroblast
  IC50: 51 to 100 nM

## Cc1nc2cc(O)c(-c3ncc(N(C)[C@@H]4CC5CC[C@H](N5)[C@@H]4F)nn3)cc2nc1C [Compound 55]
SMN2 Protein
  EC50: 16 to 50 nM
[1]; Homo sapiens, Fibroblast
  IC50: 16 to 50 nM

## Cc1nc2cc(O)c(-c3ncc(N(C)[C@H]4C[C@@H]5CCC(N5)[C@H]4F)nn3)cc2nc1C [Compound 56]
SMN2 Protein
  EC50: 16 to 50 nM
[1]; Homo sapiens, Fibroblast
  IC50: 0.01 to 15 nM

## CN(c1cnc(-c2cc3nccnc3cc2O)nn1)[C@@H]1CC2CC[C@H](N2)[C@@H]1F [Compound 57]
SMN2 Protein
  EC50: 16 to 50 nM
[1]
  IC50: 101 to 500 nM

## CN(c1cnc(-c2cc3ncccc3cc2O)nn1)[C@H]1C[C@@H]2CCC(N2)[C@H]1F [Compound 58]
SMN2 Protein
  EC50: 16 to 50 nM
[1]; Homo sapiens, Fibroblast
  IC50: 16 to 50 nM

## CN(c1cnc(-c2cc3occc(=O)c3cc2O)nn1)[C@@H]1C[C@@]2(C)CC[C@](C)(N2)[C@@H]1F [Compound 59]
SMN2 Protein
  EC50: 16 to 50 nM
[1]; Homo sapiens, Fibroblast
  IC50: 16 to 50 nM

## CN(c1cnc(-c2cc3occc(=O)c3cc2O)nn1)[C@@H]1CC2CCC[C@H](N2)[C@@H]1F [Compound 60]
SMN2 Protein
  EC50: 0.01 to 15 nM
[1]; Homo sapiens, Fibroblast
  IC50: 16 to 50 nM

## CN(c1cnc(-c2cc3occc(=O)c3cc2O)nn1)[C@@H]1C[C@@]2(C)CCC[C@](C)(N2)[C@@H]1F [Compound 61]
SMN2 Protein
  EC50: 0.01 to 15 nM
[1]; Homo sapiens, Fibroblast
  IC50: 51 to 100 nM

## CN(c1cnc(-c2cc3occc(=O)c3cc2O)nn1)[C@H]1C[C@]2(C)CC[C@@](C)(N2)[C@H]1F [Compound 62]
SMN2 Protein
  EC50: 0.01 to 15 nM
[1]; Homo sapiens, Fibroblast
  IC50: 0.01 to 15 nM

## CN(c1cnc(-c2cc3occc(=O)c3cc2O)nn1)[C@H]1C[C@@H]2CCCC(N2)[C@H]1F [Compound 63]
SMN2 Protein
  EC50: 0.01 to 15 nM
[1]; Homo sapiens, Fibroblast
  IC50: 16 to 50 nM

## CN(c1cnc(-c2cc3occc(=O)c3cc2O)nn1)[C@H]1C[C@]2(C)CCC[C@@](C)(N2)[C@H]1F [Compound 64]
SMN2 Protein
  EC50: 0.01 to 15 nM
[1]; Homo sapiens, Fibroblast
  IC50: 0.01 to 15 nM

## CN(c1cnc(-c2cc3c(F)cn(C)c(=O)c3cc2O)nn1)[C@@H]1CC2CC[C@H](N2)[C@@H]1F [Compound 65]
SMN2 Protein
  EC50: 0.01 to 15 nM
[1]; Homo sapiens, Fibroblast
  IC50: 16 to 50 nM

## CN(c1cnc(-c2cc3c(F)cn(C)c(=O)c3cc2O)nn1)[C@H]1C[C@@H]2CCC(N2)[C@H]1F [Compound 66, 4-Fluoro-6-(6-{[(2R,3S,5S)-2-fluoro-8-azabicyclo[3.2.1]octan-3-yl](methyl)amino}-1,2,4-triazin-3-yl)-7-hydroxy-2-methylisoquinolin-1-one]
SMN2 Protein
  EC50: 0.01 to 15 nM
[1]; Homo sapiens, Fibroblast
  IC50: 0.01 to 15 nM

## CN(c1cnc(-c2cc3occc(=O)c3cc2O)nn1)[C@@H]1CC2COC[C@H](N2)[C@@H]1F [Compound 67]
SMN2 Protein
  EC50: 51 to 100 nM
[1]; Homo sapiens, Fibroblast
  IC50: 101 to 500 nM

## CN(c1cnc(-c2cc3occc(=O)c3cc2O)nn1)[C@H]1C[C@@H]2COCC(N2)[C@H]1F [Compound 68]
SMN2 Protein
  EC50: 501 to 10000 nM
[1]; Homo sapiens, Fibroblast
  IC50: 101 to 500 nM

## CN(c1cnc(-c2cc3occc(=O)c3cc2O)nn1)[C@@H]1CC2COC[C@@H](C1)N2 [Compound 69]
SMN2 Protein
  EC50: 0.01 to 15 nM
[1]; Homo sapiens, Fibroblast
  IC50: 0.01 to 15 nM

## Cc1ncc2cc(-c3ncc(N(C)[C@H]4C[C@@H]5CCC(N5)[C@H]4F)nn3)c(O)cc2n1 [Compound 72]
SMN2 Protein
  EC50: 51 to 100 nM
[1]; Homo sapiens, Fibroblast
  IC50: 51 to 100 nM

## CN(c1cnc(-c2cc3c(=O)ccoc3cc2O)nn1)[C@@H]1CC2CC[C@H](N2)[C@@H]1F [Compound 75]
SMN2 Protein
  EC50: 16 to 50 nM
[1]; Homo sapiens, Fibroblast
  IC50: 101 to 500 nM

## Cc1cc2cc(O)c(-c3ncc(N(C)[C@@H]4CC5CCC[C@H](N5)[C@@H]4F)nn3)cc2cn1 [Compound 77]
SMN2 Protein
  EC50: 16 to 50 nM
[1]; Homo sapiens, Fibroblast
  IC50: 16 to 50 nM

## Cc1cc2cc(O)c(-c3ncc(N(C)[C@H]4C[C@@H]5CCCC(N5)[C@H]4F)nn3)cc2cn1 [Compound 78]
SMN2 Protein
  EC50: 0.01 to 15 nM
[1]; Homo sapiens, Fibroblast
  IC50: 0.01 to 15 nM

## CCC1C[C@@H](N(C)c2cnc(-c3cc4oc(C(F)(F)F)c(C)c(=O)c4cc3O)nn2)[C@@H](F)[C@H](C)N1 (some centres unmarked) [Compound 79]
SMN2 Protein
  EC50: 16 to 50 nM
[1]; Homo sapiens, Fibroblast
  IC50: 101 to 500 nM

## CN(c1cnc(-c2cc3oc(C(F)(F)F)cc(=O)c3cc2O)nn1)[C@H]1C[C@@H]2CCC(N2)[C@H]1F [Compound 80]
SMN2 Protein
  EC50: 0.01 to 15 nM
[1]; Homo sapiens, Fibroblast
  IC50: 0.01 to 15 nM

## CN(c1cnc(-c2cc3c(=O)n(C)ccc3cc2O)nn1)[C@@H]1CC2CC[C@H](N2)[C@@H]1F [Compound 81]
SMN2 Protein
  EC50: 16 to 50 nM
[1]; Homo sapiens, Fibroblast
  IC50: 51 to 100 nM

## CN(c1cnc(-c2cc3c(=O)n(C)ccc3cc2O)nn1)[C@H]1CC2CC[C@@H](N2)[C@H]1F [Compound 82]
SMN2 Protein
  EC50: 0.01 to 15 nM
[1]; Homo sapiens, Fibroblast
  IC50: 0.01 to 15 nM

## CCn1ccc2cc(O)c(-c3ncc(N(C)[C@@H]4C[C@H]5CCC(N5)[C@@H]4F)nn3)cc2c1=O [Compound 83]
SMN2 Protein
  EC50: 16 to 50 nM
[1]; Homo sapiens, Fibroblast
  IC50: 101 to 500 nM

## CCn1ccc2cc(O)c(-c3ncc(N(C)[C@H]4CC5CC[C@@H](N5)[C@H]4F)nn3)cc2c1=O [Compound 84]
SMN2 Protein
  EC50: 0.01 to 15 nM
[1]; Homo sapiens, Fibroblast
  IC50: 0.01 to 15 nM

## Cc1nc2cc(O)c(-c3ncc(N(C)[C@H]4CC5CC[C@@H](N5)[C@H]4F)nn3)cc2nc1C [Compound 85]
SMN2 Protein
  EC50: 16 to 50 nM
[1]; Homo sapiens, Fibroblast
  IC50: 0.01 to 15 nM

## Cc1nc2cc(O)c(-c3ncc(N(C)[C@@H]4C[C@H]5CCC(N5)[C@@H]4F)nn3)cc2nc1C [Compound 86]
SMN2 Protein
  EC50: 51 to 100 nM
[1]; Homo sapiens, Fibroblast
  IC50: 51 to 100 nM

## Cc1nc2cc(O)c(-c3ncc(N(C)[C@H]4C[C@]5(C)CC[C@@](C)(N5)[C@H]4F)nn3)cc2nc1C [Compound 87]
SMN2 Protein
  EC50: 0.01 to 15 nM
[1]; Homo sapiens, Fibroblast
  IC50: 0.01 to 15 nM

## Cc1nc2cc(O)c(-c3ncc(N(C)[C@@H]4C[C@@]5(C)CC[C@](C)(N5)[C@@H]4F)nn3)cc2nc1C [Compound 88]
SMN2 Protein
  EC50: 51 to 100 nM
[1]; Homo sapiens, Fibroblast
  IC50: 16 to 50 nM

## CN(c1cnc(-c2cc3occ(C(F)(F)F)c(=O)c3cc2O)nn1)[C@@H]1C[C@H]2CC[C@H](N2)[C@@H]1F [Compound 89]
SMN2 Protein
  EC50: 51 to 100 nM
[1]; Homo sapiens, Fibroblast
  IC50: 101 to 500 nM

## CN(c1cnc(-c2cc3occ(C(F)(F)F)c(=O)c3cc2O)nn1)[C@H]1C[C@@H]2CC[C@@H](N2)[C@H]1F [Compound 90]
SMN2 Protein
  EC50: 16 to 50 nM
[1]; Homo sapiens, Fibroblast
  IC50: 16 to 50 nM

## CCc1coc2cc(-c3ncc(N(C)[C@@H]4C[C@H]5CC[C@H](N5)[C@@H]4F)nn3)c(O)cc2c1=O [Compound 93]
SMN2 Protein
  EC50: 16 to 50 nM
[1]; Homo sapiens, Fibroblast
  IC50: 16 to 50 nM

## CN(c1cnc(-c2cc3ccn(CC(F)(F)F)c(=O)c3cc2O)nn1)[C@H]1C[C@@H]2CC[C@@H](N2)[C@H]1F [Compound 100]
SMN2 Protein
  EC50: 0.01 to 15 nM
[1]; Homo sapiens, Fibroblast
  IC50: 16 to 50 nM

## Cc1coc2cc(-c3ncc(N(C)[C@@H]4CC5CCCC(N5)[C@@H]4F)nn3)c(O)cc2c1=O (some centres unmarked) [Compound 101]
SMN2 Protein
  EC50: 0.01 to 15 nM
[1]; Homo sapiens, Fibroblast
  IC50: 0.01 to 15 nM

## Cc1coc2cc(-c3ncc(N(C)[C@H]4CC5CCCC(N5)[C@H]4F)nn3)c(O)cc2c1=O (some centres unmarked) [Compound 102]
SMN2 Protein
  EC50: 0.01 to 15 nM
[1]; Homo sapiens, Fibroblast
  IC50: 0.01 to 15 nM

## Cc1cnc2cc(-c3ncc(N(C)[C@@H]4CC5CCCC(N5)[C@@H]4F)nn3)c(O)cc2n1 (some centres unmarked) [Compound 105]
SMN2 Protein
  EC50: 16 to 50 nM
[1]; Homo sapiens, Fibroblast
  IC50: 101 to 500 nM

## Cc1cnc2cc(-c3ncc(N(C)[C@H]4CC5CCCC(N5)[C@H]4F)nn3)c(O)cc2n1 (some centres unmarked) [Compound 106]
SMN2 Protein
  EC50: 0.01 to 15 nM
[1]; Homo sapiens, Fibroblast
  IC50: 16 to 50 nM

## CN(c1cnc(-c2cc3c(=O)ccoc3cc2O)nn1)[C@@H]1CC2CCCC(N2)[C@@H]1F (some centres unmarked) [Compound 109]
SMN2 Protein
  EC50: 501 to 10000 nM
[1]; Homo sapiens, Fibroblast
  IC50: 501 to 10000 nM

## CN(c1cnc(-c2cc3c(=O)ccoc3cc2O)nn1)[C@H]1CC2CCCC(N2)[C@H]1F (some centres unmarked) [Compound 110]
SMN2 Protein
  EC50: 101 to 500 nM
[1]; Homo sapiens, Fibroblast
  IC50: 51 to 100 nM

## Cc1cc(=O)c2cc(-c3ncc(N(C)[C@@H]4CC5CCCC(N5)[C@@H]4F)nn3)c(O)cc2o1 (some centres unmarked) [Compound 111]
SMN2 Protein
  EC50: 51 to 100 nM
[1]; Homo sapiens, Fibroblast
  IC50: 101 to 500 nM
